Measured values as given in ChEMBL document CHEMBL1134484, “Homology modeling using multiple molecular dynamics simulations and docking studies of the human androgen receptor ligand binding domain bound to testosterone and nonsteroidal ligands” (J Med Chem, 2001).

Columns and labels:
[1] = molecular target: T1, Androgen receptor (Homo sapiens, UniProt P10275); experiment: Binding affinity against human androgen receptor (hAR) in competitive binding assay; NB means No binding
T1 sequence (P10275 whole entry): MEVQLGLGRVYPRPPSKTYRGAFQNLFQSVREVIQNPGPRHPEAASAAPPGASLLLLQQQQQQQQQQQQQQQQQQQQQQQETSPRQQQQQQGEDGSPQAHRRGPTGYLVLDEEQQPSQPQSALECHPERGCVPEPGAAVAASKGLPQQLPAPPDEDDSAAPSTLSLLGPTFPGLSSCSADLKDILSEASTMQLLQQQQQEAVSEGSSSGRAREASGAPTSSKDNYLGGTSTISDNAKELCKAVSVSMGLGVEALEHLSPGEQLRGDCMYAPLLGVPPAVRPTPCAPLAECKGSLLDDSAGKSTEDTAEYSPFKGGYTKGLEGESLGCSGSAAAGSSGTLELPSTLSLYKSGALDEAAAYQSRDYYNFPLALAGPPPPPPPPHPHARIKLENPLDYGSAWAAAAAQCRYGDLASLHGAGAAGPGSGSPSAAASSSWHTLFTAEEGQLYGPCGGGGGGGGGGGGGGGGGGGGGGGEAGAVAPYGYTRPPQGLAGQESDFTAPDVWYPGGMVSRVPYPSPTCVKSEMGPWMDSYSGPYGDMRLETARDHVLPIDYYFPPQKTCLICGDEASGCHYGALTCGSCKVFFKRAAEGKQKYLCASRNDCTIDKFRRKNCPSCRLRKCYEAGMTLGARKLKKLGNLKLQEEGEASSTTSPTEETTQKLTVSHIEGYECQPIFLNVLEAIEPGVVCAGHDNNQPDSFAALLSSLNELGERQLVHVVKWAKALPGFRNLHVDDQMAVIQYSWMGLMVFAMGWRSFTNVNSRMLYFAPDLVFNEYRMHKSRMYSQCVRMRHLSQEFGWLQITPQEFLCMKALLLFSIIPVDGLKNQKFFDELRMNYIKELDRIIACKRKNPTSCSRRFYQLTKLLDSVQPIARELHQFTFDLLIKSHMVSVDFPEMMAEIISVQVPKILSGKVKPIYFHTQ

[2] = molecular target: T1, Androgen receptor; experiment: Binding affinity against human androgen receptor (hAR) in competitive binding assay

Q: With `C[C@@]1(C(=O)Nc2ccc([N+](=O)[O-])c(C(F)(F)F)c2)CO1` as the compound, how does the Ki [1] read?
A: The Ki was “Not Active”.

Q: For `C[C@](O)(CBr)C(=O)Nc1ccc(N)c(C(F)(F)F)c1`, which Ki [2] is on record?
A: Its Ki is 80.9 nM.
